One data set can be described thus: Water solubility. The format is physicochemical.
The conditions of data set [1]: in vivo; cited from earlier work.
The next data set deals with Colon 26 tumors. Description: In-vivo photodynamic therapy (PDT), tumor regrowth monitored 60 days. Conditions: BALB/c mice bearing Colon 26 tumors, PS dose 0.47 moles/kg, light 665 nm, 135 J/cm^2, 75 mW/cm^2, 24 hours post-injection. The procedure: Eight- to twelve-week-old BALB/cAnNCr mice (Jackson Laboratory, Bar Harbor, Me.) were inoculated subcutaneously (s.c.) with 1×10^6 Colon 26 cells. When tumors reached 40-70 mm^3, mice were injected i.v. (tail vein) with PS 1 (formulated in 1% Tween 80/D5W) or PAA nanoconstructs/formulations 6-10 suspended in water and further diluted in D5W. 24 hours post i.v. injection (dose of PS 1: […]), mice (BALB/c mice bearing Colon 26 tumors, 10 mice/group) were restrained in plexiglass holders and tumors were irradiated at 665 nm with a fluence and fluence rate of 135 J/cm^2 at 75 mW/cm^2, respectively, using a pumped argon-dye laser. The growth of tumors was measured two to three times per week and the mice were monitored for a total of 60 days post PDT treatment. When the tumor regrowth was >400 mm^3, the mice were euthanized according to the guidelines of the institute approved animal protocol.

For data set [2] the following is noted: in vivo; cited from earlier work. This is another data set of the same source.

On to `CC1(C)C(=CC=C2CCCC(C=CC3=[N+](CCCCS(=O)(=O)[O-])c4ccc5ccccc5c4C3(C)C)=C2Cl)N(CCCCS(=O)(=O)[O-])c2ccc3ccccc3c21.[Na+]` [cyanine dye 2, IR820], for which the solubility in water result in “Water solubility” was “water insoluble”.

As for iodobenzyl pheophorbide-a, the plasma half lives in data set [1] is given as ~25 h.

Take `CCCCCCOC(C)c1c(C)c2cc3nc(c4c5[nH]c(cc6nc(cc1[nH]2)C(C)=C6CC)c(C)c5C(=O)C4)[C@@H](CCC(=O)O)[C@@H]3C` (stereo partly drawn) [HPPH, 3-(1′-hexyloxyethyl)pyropheophorbide-a]: the plasma half lives in data set [1] is reported as ~25 h. Besides, the “PDT response (no tumor regrowth) / tumor cure” value in the data set with Colon 26 tumors and in the data set with Colon 26 tumors (listed as HPPH 1) was 40% each time. The skin phototoxicity result in data set [2] is “low skin phototoxicity”.

(Values after US10568963B2, “Multifunctional nanoplatforms for fluorescence imaging and photodynamic therapy developed by post-loading photosensitizer and fluorophore to polyacrylamide nanoparticles” (HEALTH RESEARCH, INC., priority 2009, dated 2020).)
